Results reported in the supplement of paper PMC10307832.

Columns and labels:
Test in all cases: relative viability (nuclei count vs DMSO), 5 days (fraction); higher = more cells survive
Carfilzomib + AZD7762 = compound: CC(C)C[C@H](NC(=O)[C@H](CCc1ccccc1)NC(=O)CN1CCOCC1)C(=O)N[C@@H](Cc1ccccc1)C(=O)N[C@@H](CC(C)C)C(=O)[C@@]1(C)CO1 [Carfilzomib] + NC(=O)Nc1cc(-c2cccc(F)c2)sc1C(=O)N[C@H]1CCCNC1 [AZD7762] (partner 0.2 µM)
Outline: (§1)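 Lung cancer cell lines were pin-tool dosed in 1536-well plates on the day after seeding, with either a lone drug or a fixed anchor-drug dose plus five library-drug doses (not always all listed) in √10 steps. Nuclei were counted on 4× images after 5 days. Relative viability is the ratio of treated-well to vehicle-well nuclei counts, with each value a median of duplicate plates.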

Carfilzomib + Trametinib = compound: CC(C)C[C@H](NC(=O)[C@H](CCc1ccccc1)NC(=O)CN1CCOCC1)C(=O)N[C@@H](Cc1ccccc1)C(=O)N[C@@H](CC(C)C)C(=O)[C@@]1(C)CO1 [Carfilzomib] + CC(=O)Nc1cccc(-n2c(=O)n(C3CC3)c(=O)c3c(Nc4ccc(I)cc4F)n(C)c(=O)c(C)c32)c1 [Trametinib] (partner 0.02 µM)
Outline: as §1

Olaparib + Linsitinib = compound: O=C(c1cc(Cc2n[nH]c(=O)c3ccccc23)ccc1F)N1CCN(C(=O)C2CC2)CC1 [Olaparib] + C[C@]1(O)C[C@@H](c2nc(-c3ccc4ccc(-c5ccccc5)nc4c3)c3c(N)nccn32)C1 [Linsitinib] (partner 1 µM)
Outline: as §1

Crizotinib + Pemetrexed = compound: C[C@@H](Oc1cc(-c2cnn(C3CCNCC3)c2)cnc1N)c1c(Cl)ccc(F)c1Cl [Crizotinib] + Nc1nc2[nH]cc(CCc3ccc(C(=O)N[C@@H](CCC(=O)O)C(=O)O)cc3)c2c(=O)[nH]1 [Pemetrexed] (partner 0.2 µM)
Outline: as §1

Cell Line	relative viability (Carfilzomib + AZD7762; first compound 0.001 µM)	relative viability (Carfilzomib + AZD7762; first compound 0.003162 µM)	relative viability (Carfilzomib + AZD7762; first compound 0.01 µM)	relative viability (Carfilzomib + AZD7762; first compound 0.03162 µM)	relative viability (Carfilzomib + AZD7762; first compound 0.1 µM)	relative viability (Carfilzomib + Trametinib; first compound 0.001 µM)	relative viability (Carfilzomib + Trametinib; first compound 0.003162 µM)	relative viability (Carfilzomib + Trametinib; first compound 0.01 µM)	relative viability (Carfilzomib + Trametinib; first compound 0.03162 µM)	relative viability (Carfilzomib + Trametinib; first compound 0.1 µM)	relative viability (Olaparib + Linsitinib; first compound 0.08 µM)	relative viability (Olaparib + Linsitinib; first compound 0.253 µM)	relative viability (Olaparib + Linsitinib; first compound 2.53 µM)	relative viability (Olaparib + Linsitinib; first compound 8 µM)	relative viability (Crizotinib + Pemetrexed; first compound 0.01 µM)	relative viability (Crizotinib + Pemetrexed; first compound 0.03162 µM)	relative viability (Crizotinib + Pemetrexed; first compound 0.1 µM)	relative viability (Crizotinib + Pemetrexed; first compound 1 µM)	relative viability (Crizotinib + Pemetrexed; first compound 0.3162 µM)
HCC-366	0.231	0.276	0.251	0.419	0.212	0.345	0.388	0.405	0.293	0.0458	0.67	0.479	0.447	0.303	0.166	0.154	0.167	0.202	
HCC-827	0.194	0.202	0.207	0.201	0.17	0.566	0.542	0.534	0.491	0.191	0.899	0.886	0.922	0.774	0.268	0.183	0.267	0.261	0.274
HOP-62	0.619	0.699	0.404	0.173	0.0821	0.385	0.38	0.363	0.21	0.0811	1.11	1.16	0.968	0.47	0.347	0.266	0.331	0.31	0.28
LC-2-ad	0.798	0.913	0.856	0.794	0.608	0.9	0.97	0.881	0.917	0.471	0.81	0.754	0.787	0.633	0.266	0.259	0.276	0.302	
LCLC-97TM1	0.219	0.246	0.252	0.158	0.0638	0.19	0.21	0.227	0.0729	0.0639	0.166	0.178	0.162	0.18	0.201	0.16	0.166	0.192	0.17
LCLC-103H	0.767	0.849	0.759	0.778	0.402	0.688	0.643	0.72	0.642	0.557	1.13	1.07	1.04	0.873	0.493	0.47	0.447	0.444	0.461
LK-2	0.369	0.519	0.399	0.0916	0.0762	0.713	0.973	0.747	0.172	0.2	0.588	0.691	0.549	0.485	0.276	0.188	0.246	0.236	0.166
